Data from US10618944B2, “Tumor suppressor SALL1 as a therapeutic agent for treating cancer” (Saint Louis University, priority 2015, dated 2020).

How the values were obtained:
[1] = test system: ATM-associated DNA damage response in E0771; test: DNA damage response markers by FACS; format: cell-based, murine; conditions: KU55933 20 μM
Method: (§1) The expression of DNA damage response markers on tumor cells were determined by FACS analysis after staining with anti-human specific antibodies conjugated with either PE or FITC. These human antibodies included: anti-phosphorylated H2Ax, anti-phosphorylated p53 bp, and anti-phosphorylated ATM, which were purchased from Cell Signaling Technology or BD Biosciences. All stained cells were analyzed on a FACSCalibur flow cytometer (BD Bioscience) and data analyzed with FlowJo software (Tree Star).

[2] = test system: ATM-associated DNA damage response in MCF-7; test: DNA damage response markers by FACS; format: cell-based, human; conditions: KU55933 20 μM
Method: as §1

[3] = test system: MCF-7; test: Senescence associated β-Galactosidase (SA-β-Gal) staining; format: cell-based, human; conditions: for SALL1-induced senescent cell populations with MAPK inhibitor: 10 μM for 5 days, SALL1-transfected cells
Method: (§2) Senescence associated β-Galactosidase (SA-β-Gal) activity in tumor cells was detected as previously described (30, 33). Briefly, tumor cell lines were transfected with or without plasmids and cultured for 3 or 5 days. Cells were washed in PBS (pH 7.2), fixed in 3% formaldehyde, and followed to incubate overnight at 37° C. with freshly prepared SA-β-Gal staining solution (1 mg/ml X-gal, 5 mM K3Fe[CN]6, 5 mM K4Fe[CN]6, 2 mM MgCl2 in PBS at pH 6.0). The stained cells were washed with H2O and examined with a microscope. For some experiments, SA-β-Gal^+ populations were determined in the transfected tumor cells in the presence of following various inhibitors or combined transfection with shRNAs: ATM inhibitor KU55933 (20 μM, Tocris Bioscience); mTOR inhibitor Rapmycin (5 μM, Sigma); MAPK inhibitors U0126 (10 μM), SB203580 (10 μM) and SP600125 (10 μM), or PI3 Kinase inhibitor Wortminnin (10 μM) (Calbiochemistry), or transfection with shRNAs against p38, ERK and mTOR, for 3 or 5 days. The treated tumor cells were then detected for SA-β-Gal expression.
(§3) The methods for design and construction of shRNA specific for ERK1, ERK2, P38a, JNK1 and mTOR or scrambled lenti-shRNAs, and generation of recombinant lentivirus carrying GFP and shRNA, have been described previously (Peng et al., 2005 and Peng et al., 2007). For virus transfection, concentrated lentiviral supernatant with a multiplicity of infection (MOI) of 5-10 in a total volume of 0.5 ml culture medium was added to the tumor cells growing in 24 well plates containing 8 μg/ml polybrene (Sigma), and then centrifuged at 1000×g for 1 hr at room temperature. Tumor cells were sorted into GFP^+ and GFP^− cells with a FACS ARIA sorter at 3 or 4 days post-transfection. The sorted cells (GFP^+ and GFP^−) were then transfected with or without pcDNA3.1-SALL-1, and induction of senescence was determined.

[4] = test system: E0771; test: as above; format: cell-based, murine; conditions: for SALL1-induced senescent cell populations with MAPK inhibitor: 10 μM for 5 days, SALL1-transfected cells
Method: as §2, §3

[5] = pretreated 20 μM for 1 day, then SALL1 transfection, 3 days

Row | SALL1-induced senescence induction with ATM inhibitor [3, 5] | SALL1-induced senescence induction with ATM inhibitor [4, 5] | Structure (SMILES) | phosphorylation of ATM in SALL1-transfected tumor cells with inhibitor [1] | phosphorylation of ATM in SALL1-transfected tumor cells with inhibitor [2] | SALL1-induced senescent cell populations with MAPK inhibitor [3] | SALL1-induced senescent cell populations with MAPK inhibitor [4]
1 | prevented the senescence induction | prevented the senescence induction | O=c1cc(-c2cccc3c2Sc2ccccc2S3)oc(N2CCOCC2)c1 [KU55933] | dramatically suppressed | dramatically suppressed | – | –
2 | – | – | N#CC(=C(/N)Sc1ccccc1N)/C(C#N)=C(\N)Sc1ccccc1N [U0126] | – | – | significantly reduced | significantly reduced
3 | – | – | C[S+]([O-])c1ccc(-c2nc(-c3ccncc3)c(-c3ccc(F)cc3)[nH]2)cc1 (centres unmarked) [SB203580] | – | – | significantly reduced | significantly reduced
